Laboratory results as given in patent US20220073532A1, “INHIBITORS OF CGAS ACTIVITY AS THERAPEUTIC AGENTS” (BELLBROOK LABS, LLC, priority 2019, published 2022).
Like-named read-outs stand apart in the source and are kept apart here.

Target: cGAS (Homo sapiens, UniProt Q8N884)
Assay: cGAS enzymatic assay (FP/TR-FRET detection of cGAMP)
Assay type: biochemical
Design: The cGAS assay was used to screen 100,000 compounds with full-length human cGAS; 6xHis; made in house
Conditions: cGAS (30 nM)
Description: Some exemplary compounds of the disclosure were tested for inhibition of cGAS (30 nM). The results are provided in Table 1 where “A” indicates an IC50 of less than 100 nM, “B” indicates an IC50 of greater than 100 nM and less than 500 nM, “C” indicates an IC50 of greater than 500 nM and less than 1 μM, “D” indicates an IC50 of greater than 1 μM and less than 10 μM, and “E” indicates an IC50 of greater than 10 μM.
A homogenous cGAS enzymatic assay was developed with fluorescence polarization (FP) and time-resolved Forster resonance energy transfer (TR-FRET) readouts (FIG. 2A-2D). The cGAS assay was used to screen 100,000 compounds with full-length human cGAS (FIG. 2E), resulting in the identification of the novel chemotype of the disclosure, two of which are further developed in a structure-driven hit-to-lead study (Table 3, below). The assay performance was robust, as indicated by respective Z and Z′ values of 0.59 and 0.63 in the screen; compounds with polarization values greater than three SDs from the mean were considered hits; a scatterplot from 10 plates (3,200 compounds) is shown in FIG. 2D.
Biochemical and biophysical analysis: Potency and MOA studies, including Mn^2+ sensitivity, are performed using the cGAS enzymatic assay. Dose response experiments are used to determine IC50 values under basal conditions (5 mM MgCl2, 100 μM ATP/GTP), and with the addition of physiological levels of Mn (0.2 mM) using human and mouse cGAS. Ligand optimization is driven by potency with the human enzyme; potency with mouse cGAS informs selection of an appropriate disease model for efficacy studies. Competition with ATP and GTP is assessed by comparing basal IC50 values to those in the presence of saturating ATP or GTP, and subsequently confirmed by measuring velocity vs. substrate at varying ATP or GTP levels. Inhibitor residence times (1/koff) are used as a key parameter for prioritizing compounds and driving SAR, because a longer residence time often results from an allosteric mechanism, and can also correlate with improved cellular activity. The cGAS enzymatic assay is used with the jump dilution method to measure residence times (inhibitor dissociation rates), as described for kinases using the very similar ADP assay. Biophysical methods, including SPR and TSA, are used as orthologous methods for residence time measurements and kd estimates.

[1] = with Mn^2+, read-out: Inhibition cGAS + Mn^2+

Sequence of cGAS (Q8N884 whole entry): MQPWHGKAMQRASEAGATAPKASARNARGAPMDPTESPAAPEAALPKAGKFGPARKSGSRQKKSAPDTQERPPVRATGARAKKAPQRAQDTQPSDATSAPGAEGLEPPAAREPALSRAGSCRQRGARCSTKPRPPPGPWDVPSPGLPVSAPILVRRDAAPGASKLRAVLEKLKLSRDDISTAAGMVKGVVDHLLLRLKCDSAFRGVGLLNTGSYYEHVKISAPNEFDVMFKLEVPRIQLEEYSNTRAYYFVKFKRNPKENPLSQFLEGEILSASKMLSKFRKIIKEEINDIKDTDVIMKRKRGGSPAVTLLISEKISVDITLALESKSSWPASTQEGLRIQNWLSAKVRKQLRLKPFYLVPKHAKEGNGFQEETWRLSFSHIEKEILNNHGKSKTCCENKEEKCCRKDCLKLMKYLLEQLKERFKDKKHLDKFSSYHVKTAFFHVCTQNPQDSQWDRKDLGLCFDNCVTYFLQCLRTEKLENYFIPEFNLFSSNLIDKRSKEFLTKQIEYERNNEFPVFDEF

Row | Structure (SMILES) | IC50 [1] [µM] | IC50 (read-out: Inhibition cGAS) [µM]
1 | Cc1nc(N2C[C@@H](NC(=O)C(C)(C)c3cn[nH]c3)C[C@H]2C(=O)O)c2oc3ccccc3c2n1 [Compound 66, (2S,4S)-4-(2-methyl-2-(1H-pyrazol-4-yl)propanamido)-1-(2-methylbenzofuro[3,2-d]pyrimidin-4-yl)pyrrolidine-2-carboxylic acid] | 1 to 10 | 0.1 to 0.5
2 | O=C(O)[C@@H]1CCCN1c1ncnc2c1oc1ccccc12 [Compound 4, benzofuro[3,2-d]pyrimidin-4-yl-L-proline] | > 10 | 1 to 10
3 | C[C@H]1C[C@@H](C(=O)O)N(c2nc(-c3ccccc3)nc3c2oc2ccccc23)C1 [Compound 21, (2S,4S)-4-methyl-1-(2-phenylbenzofuro[3,2-d]pyrimidin-4-yl)pyrrolidine-2-carboxylic acid] | > 10 | 1 to 10
4 | Cc1nc(N2C[C@@H](CC(=O)Nc3ccccc3)C[C@H]2C(=O)O)c2oc3ccccc3c2n1 [Compound 52, (2S,4R)-1-(2-methylbenzofuro[3,2-d]pyrimidin-4-yl)-4-(2-oxo-2-(phenylamino)ethyl)pyrrolidine-2-carboxylic acid] | 1 to 10 | 0.1 to 0.5
5 | O=C(O)[C@@H]1CCCN1c1nc(C2CC2)nc2c1oc1ccccc12 [Compound 8, (2-cyclopropylbenzofuro[3,2-d]pyrimidin-4-yl)-L-proline] | > 10 | 1 to 10
6 | Cc1nc(N2C[C@@H](NC3CCCNC3)C[C@H]2C(=O)O)c2oc3ccccc3c2n1 (stereo partly drawn) [Compound 37, (2S,4S)-1-(2-methylbenzofuro[3,2-d]pyrimidin-4-yl)-4-(piperidin-3-ylamino)pyrrolidine-2-carboxylic acid] |  | 0.5 to 1
7 | C[C@H](Nc1nc(-c2ccccc2)nc2c1oc1ccccc12)C(=O)O [Compound 3, (2-phenylbenzofuro[3,2-d]pyrimidin-4-yl)-L-alanine] | > 10 | 1 to 10
8 | Cc1nc(N2C[C@@H](NC(=O)Cc3ncc[nH]3)C[C@H]2C(=O)O)c2oc3ccccc3c2n1 [Compound 36, (2S,4S)-4-(2-(1H-imidazol-2-yl)acetamido)-1-(2-methylbenzofuro[3,2-d]pyrimidin-4-yl)pyrrolidine-2-carboxylic acid] |  | 0.5 to 1
9 | O=C(O)[C@@H]1CCCN1c1nc(C2CCC2)nc2c1oc1ccccc12 [Compound 11, (2-cyclobutylbenzofuro[3,2-d]pyrimidin-4-yl)-L-proline] | > 10 | 1 to 10
10 | Cc1nc(N2C[C@@H](Nc3n[nH]cc3C(C)C)C[C@H]2C(=O)O)c2oc3ccccc3c2n1 [Compound 59, (2S,4S)-4-((4-isopropyl-1H-pyrazol-3-yl)amino)-1-(2-methylbenzofuro[3,2-d]pyrimidin-4-yl)pyrrolidine-2-carboxylic acid] | 1 to 10 | 0.1 to 0.5
11 | Cc1nc(N2[C@H](C(=O)O)C[C@@H]3C[C@@H]32)c2oc3ccccc3c2n1 [Compound 54, (1S,3S,5S)-2-(2-methylbenzofuro[3,2-d]pyrimidin-4-yl)-2-azabicyclo[3.1.0]hexane-3-carboxylic acid] | 1 to 10 | 1 to 10
12 | O=C(O)[C@@H]1CCCN1c1nc(-c2ccncc2)nc2c1oc1ccccc12 [Compound 18, (2-(pyridin-4-yl)benzofuro[3,2-d]pyrimidin-4-yl)-L-proline] | > 10 | > 10
13 | CC(C)c1nc(N2CCC[C@H]2C(=O)O)c2oc3ccccc3c2n1 [Compound 9, (2-isopropylbenzofuro[3,2-d]pyrimidin-4-yl)-L-proline] | > 10 | 1 to 10
14 | Cc1nc(N2C[C@@H](NC(=O)C(C)(C)c3ccnc(C(F)(F)F)c3)C[C@H]2C(=O)O)c2oc3ccccc3c2n1 [Compound 61, (2S,4S)-4-(2-methyl-2-(2-(trifluoromethyl)pyridin-4-yl)propanamido)-1-(2-methylbenzofuro[3,2-d]pyrimidin-4-yl)pyrrolidine-2-carboxylic acid] | 1 to 10 | 0.5 to 1
15 | Cc1nc(N2C[C@@H](Nc3n[nH]c4ccccc34)C[C@H]2C(=O)O)c2oc3ccccc3c2n1 [Compound 55, (2S,4S)-4-((1H-indazol-3-yl)amino)-1-(2-methylbenzofuro[3,2-d]pyrimidin-4-yl)pyrrolidine-2-carboxylic acid] | 1 to 10 | 0.5 to 1
16 | CC(C)(C(=O)N[C@H]1C[C@@H](C(=O)O)N(c2nc(C(F)(F)F)nc3c2oc2ccccc23)C1)c1cn[nH]c1 [Compound 58, (2S,4S)-4-(2-methyl-2-(1H-pyrazol-4-yl)propanamido)-1-(2-(trifluoromethyl)benzofuro[3,2-d]pyrimidin-4-yl)pyrrolidine-2-carboxylic acid] | 1 to 10 | 0.5 to 1
17 | CCc1nc(N2CCC[C@H]2C(=O)O)c2oc3ccccc3c2n1 [Compound 7, (2-ethylbenzofuro[3,2-d]pyrimidin-4-yl)-L-proline] | 1 to 10 | 1 to 10
18 | Cc1cc(CC(=O)N[C@H]2C[C@@H](C(=O)O)N(c3nc(C)nc4c3oc3ccccc34)C2)ccn1 [Compound 67, (2S,4S)-1-(2-methylbenzofuro[3,2-d]pyrimidin-4-yl)-4-(2-(2-methylpyridin-4-yl)acetamido)pyrrolidine-2-carboxylic acid] | > 10 | 1 to 10
19 | Cc1nc(N2C[C@@H](CC(=O)NC3CCCC3)C[C@H]2C(=O)O)c2oc3ccccc3c2n1 [Compound 51, (2S,4R)-4-(2-(cyclopentylamino)-2-oxoethyl)-1-(2-methylbenzofuro[3,2-d]pyrimidin-4-yl)pyrrolidine-2-carboxylic acid] | 1 to 10 | 0.1 to 0.5
20 | Cc1nc(N2C[C@@H](NC(=O)Cc3cccnc3)C[C@H]2C(=O)O)c2oc3ccccc3c2n1 [Compound 34, (2S,4S)-1-(2-methylbenzofuro[3,2-d]pyrimidin-4-yl)-4-(2-(pyridin-3-yl)acetamido)pyrrolidine-2-carboxylic acid] |  | 0.5 to 1
21 | CCc1nc(N2CCC[C@H]2C(=O)NS(=O)(=O)N(C)C)c2oc3ccccc3c2n1 [Compound 14, (S)-N-(N,N-dimethylsulfamoyl)-1-(2-ethylbenzofuro[3,2-d]pyrimidin-4-yl)pyrrolidine-2-carboxamide] | > 10 | > 10
22 | Cc1nc(N2C[C@@H](NC(=O)Cc3ccnc(C(N)=O)c3)C[C@H]2C(=O)O)c2oc3ccccc3c2n1 [Compound 50, (2S,4S)-4-(2-(2-carbamoylpyridin-4-yl)acetamido)-1-(2-methylbenzofuro[3,2-d]pyrimidin-4-yl)pyrrolidine-2-carboxylic acid] |  | 0.5 to 1
23 | Cc1nc(N2C[C@@H](NC(=O)Cc3cn[nH]c3)C[C@H]2C(=O)O)c2oc3ccccc3c2n1 [Compound 32, (2S,4S)-4-(2-(1H-pyrazol-4-yl)acetamido)-1-(2-methylbenzofuro[3,2-d]pyrimidin-4-yl)pyrrolidine-2-carboxylic acid] |  | 0.5 to 1
24 | N#Cc1nc(N2CCC[C@H]2C(=O)O)c2oc3ccccc3c2n1 [Compound 22, (2-cyanobenzofuro[3,2-d]pyrimidin-4-yl)-L-proline] | 1 to 10 | 1 to 10
25 | Cc1nc(N2C[C@@H](Cc3nnn[nH]3)C[C@H]2CO)c2oc3ccccc3c2n1 [Compound 65, ((2S,4R)-4-((1H-tetrazol-5-yl)methyl)-1-(2-methylbenzofuro[3,2-d]pyrimidin-4-yl)pyrrolidin-2-yl)methanol] | 1 to 10 | 1 to 10
26 | Cc1nc(N2C[C@@H](NC(=O)C3(c4ccncc4)CC3)C[C@H]2C(=O)O)c2oc3ccccc3c2n1 [Compound 62, (2S,4S)-1-(2-methylbenzofuro[3,2-d]pyrimidin-4-yl)-4-(1-(pyridin-4-yl)cyclopropane-1-carboxamido)pyrrolidine-2-carboxylic acid] | 1 to 10 | 0.5 to 1
27 | Cc1cncc(CC(=O)N[C@H]2C[C@@H](C(=O)O)N(c3nc(C)nc4c3oc3ccccc34)C2)c1 [Compound 42, (2S,4S)-1-(2-methylbenzofuro[3,2-d]pyrimidin-4-yl)-4-(2-(5-methylpyridin-3-yl)acetamido)pyrrolidine-2-carboxylic acid] |  | 0.5 to 1
28 | Cc1nc(N[C@@H](CCC(=O)O)C(=O)O)c2oc3ccccc3c2n1 [Compound 24, (2-methylbenzofuro[3,2-d]pyrimidin-4-yl)glutamic acid] | > 10 | 1 to 10
29 | Cc1nc(N2C[C@@H](NC(=O)c3ncc[nH]3)C[C@H]2C(=O)O)c2oc3ccccc3c2n1 [Compound 47, (2S,4S)-4-(1H-imidazole-2-carboxamido)-1-(2-methylbenzofuro[3,2-d]pyrimidin-4-yl)pyrrolidine-2-carboxylic acid] |  | 1 to 10
